Key:
[1] = Plasma analysis and pharmacokinetics after intravaginal administration
Description: The low dose of 1 mg represents the largest potential human dose on an mg/kg basis. The high dose of 20 mg represents the largest potential total human dose unadjusted for body weight.
Pharmacokinetic parameters were determined by non-compartmental methods using Phoenix™ WinNonlin® (Version 6.3.0) Model: Plasma Data, Extravascular Administration for individual serial sample collection data (Pharsight Corporation). Area under the curve values were calculated using the linear trapezoidal rule with linear interpolation. […] Nominal sample collection time was used for the analysis unless the actual sample collection time exceeded the allowable collection window for the respective time; in which case, the actual sample collection time was used. Pharmacokinetic parameter data manipulation was performed using Excel 2010 (Microsoft Corporation).
Pharmacokinetic parameters determined were defined as follows: • Cmax: Maximum observed concentration occurring at Tmax. Tmax: Time of maximum observed concentration. • AUC0-t: Area under the curve from the time of dosing to the time of the last observation.

[2] = oral, cited from earlier work
female rabbits = experiment: 28-day intravaginal irritation study, modified Draize vaginal scoring; assay type: in vivo, New Zealand White rabbit
Description: The testing was conducted following once daily intravaginal administration to female rabbits for 28 days to provide evaluation of the reversibility, progression, or delayed appearance of any observed changes following a 14-day postdose observation period. The animal model most commonly used to evaluate safety of vaginally administered products is the rabbit and the ovariectomized rat. However, the rabbit is considered the more sensitive model, and thus, was selected for this study.
Assessment of toxicity and/or irritation was based on mortality, clinical observations, vaginal irritation scores, body weight, physical examinations; clinical pathology, anatomic pathology, and histopathological grading of vaginal tissues. Treatment-related microscopic findings occurred in the proximal, mid, and distal vagina.
A total of 26 female experimentally naïve New Zealand White Hra:(NZW)SPF albino rabbits (approximately 7.5 months of age at receipt) were received from Covance Research Products, Greenfield, Ind. During the 9-day acclimation period, the animals were observed daily with respect to general health and any signs of disease.
The vaginal region of the animals was evaluated for signs of irritation using a modified Draize scoring system as presented in the following table. Evaluations were conducted prior to each daily dose and daily during the recovery period. Any abnormalities observed during this examination were documented as a detailed clinical observation. A score of “1” or above was confirmed by a member of the veterinary staff.

[3] = tested on: postmenopausal hysterectomized patients with atrophic vaginitis; experiment: Pilot study of tamoxifen citrate vaginal suppository: vaginal pH; assay type: in vivo, human
Description: (§1) Methodology. Open-label prospective cohort study. Postmenopausal women with atrophic vaginitis were confirmed by vaginal pH. At baseline, vaginal pH and measure of their subjective vaginal dryness based on a VAS vaginal dryness. Four subjects were treated with vaginal suppositories of tamoxifen citrate for three months. After eight weeks of treatment, subjects had pharmacokinetic studies of the vaginal suppository.
(§2) Research Design. Healthy women with atrophic vaginitis were recruited to this study. To be eligible to enroll in the study, subjects underwent one screening visit. This visit was to determine the subject's vaginal pH and to measure of their subjective vaginal dryness based on a VAS. Once the subject met eligibility criteria, they received study medication.
(§3) Subjects received supplies of the study drug every six weeks.
(§4) Duration of Treatment. Participants were given the vaginal suppository every day for one week and then two times per week thereafter for 3 months. They were told how to insert the test drug (using the applicator, place the study drug deep into the vagina) and the dosing schedule.
(§5) Statistical Methods. The primary endpoints are changes in the self-assessment of vaginal dryness and vaginal pH defined as the difference between the baseline and the 3-month measurements. Descriptive statistics provided for the continuous study endpoints will include mean, median, standard deviation, and 95% confidence intervals. Descriptive statistics provided for categorical endpoints will include frequencies, percents, and 95% confidence intervals. Missing values of a variable will be imputed using the last observed value for the participant. Descriptive statistics will be provided with and without imputation of missing values.

[4] = tested on: postmenopausal hysterectomized patients with atrophic vaginitis; settings: 3 months of vaginal suppository, 4 patients
Description: The primary efficacy endpoints were normalization of vaginal pH and improvement in vaginal dryness symptom. Safety assessments consisted of monitoring and recording all adverse events and serious adverse events. […] The blood tests were measured after 5 hours after vaginal administration.

[5] = tested on: postmenopausal hysterectomized patients with atrophic vaginitis; experiment: Pilot study of tamoxifen citrate vaginal suppository: self-assessment of vaginal dryness (VAS); assay type: in vivo, human
Description: as §1, §2, §3, §4, §5

[6] = Day 28, 1 and 20 mg/mL groups, female rabbits
[7] = female, New Zealand White, rabbit, in vivo
[8] = 20 mg vaginal suppository daily for one week then twice per week, month 3, 4 subjects
[9] = 20 mg vaginal suppository, month 3 versus enrollment, negative = decrease
[10] = baseline before treatment, 4 subjects

CCC(=C(c1ccc(O)cc1)c1ccc(OCCN(C)C)cc1)c1ccccc1 [4-Hydroxytamoxifen]
Ratio of high to low mean values, AUC0-t/Dose [1, 6]: 3.16
Ratio of high to low mean values, Cmax/Dose [1, 6]: 4.24
Ratio of mean metabolite to Tamoxifen AUC0-t values ([1]; Day 28, High Dose 20 mg/mL, female rabbits): 0.148
Ratio of mean metabolite to Tamoxifen AUC0-t values ([1]; Day 28, Low Dose 1 mg/mL, female rabbits): 0.0702
Median Tmax, range over dose groups ([1]; rabbit, in vivo): 1 to 8 h

CC/C(=C(\c1ccccc1)c1ccc(OCCNC)cc1)c1ccccc1 [N-Desmethyltamoxifen]
Tmax (median) ([1]; rabbit, in vivo): 1 h

CC/C(=C(\c1ccccc1)c1ccc(OCCN(C)C)cc1)c1ccccc1 [Tamoxifen, 1-(p-dimethylamino-ethoxphenyl)-2-ethyl-1,2-diphenylethylene, reference compound]
Mean AUC0-t, range over dose groups [1, 7]: 8.85 to 26.5 ng·h/mL
Mean Cmax, range over dose groups [1, 7]: 0.824 to 2.33 ng/mL
Tmax ([1]; female, New Zealand White, rabbit, in vivo, Median Tmax, range over dose groups): 0.5 to 1 h
Tmax ([1]; female, New Zealand White, rabbit, in vivo, Tmax (median)): 1 h
time to steady state concentrations ([2]; after initiation of therapy): about 4 weeks
average steady state plasma concentration ([2]; once daily for 3 months): 122 ng/mL

CC/C(=C(\c1ccccc1)c1ccc(OCCN(C)C)cc1)c1ccccc1.O=C(O)CC(O)(CC(=O)O)C(=O)O [tamoxifen citrate, (Z) 2-[4-(1,2-diphenyl-1-butenyl)phenoxy]-N, N-dimethylethanamine 2-hydroxy-1,2,3-propanetricarboxylate]
vaginal irritation (erythema, edema scores) (female rabbits; 1 and 20 mg/mL intravaginal once daily, 28 days): no test article-related vaginal irritation
vaginal irritation during recovery period (female rabbits; 14-day recovery period): no signs of vaginal irritation
vaginal irritation compared with vehicle control (female rabbits; low and high doses (1 and 20 mg/mL), 28 days): did not appear to be any more irritating than the vehicle control
pH Month 3, median [3, 8]: 5.0
vaginal pH, Paired Difference enrollment to month 3, median [3, 9]: −2.0
lowering of vaginal pH compared with conjugated estrogens ([3]; after 3 months, twice per week regimen): as effective as conjugated estrogens
pH Enrollment, median [3, 10]: 7.1
drop-outs, serious adverse events, deaths [4]: no patient drop-outs, serious adverse events, or deaths
Vaginal Dryness Month 3, median (VAS) [5, 8]: 3.0
Vaginal Dryness, Paired Difference enrollment to month 3, median [5, 9]: −5.5
Vaginal Dryness Enrollment, median (VAS) [5, 10]: 8.0
